Molecular target: T1, hMC2 receptor (crude hMC2R membranes from CRE-bla-CHO-K1 cells stably expressing hMC2 receptor and hMRAP accessory protein) (Homo sapiens, UniProt Q01718)
T1 construct: crude membrane fractions
Assay: hMC2 membrane binding assay ([125I]ACTH (1-39) Tyr23, SPA)
Details: displacement of 0.2 nM [125I]ACTH (1-39) Tyr23 from hMC2R membranes, 1.5 hours at room temperature; read-out: MC2R binding potency
In short: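 Ki values come from non-linear regression of SPA scintillation counts, with compounds displacing [125I]ACTH(1-39) Tyr23. Membranes come from CRE-bla-CHO-K1 cells stably expressing hMC2 receptor together with hMRAP. They are preincubated with WGA-coated PVT SPA beads in 50 mM HEPES pH 7.4 with 0.20% BSA, Mg2+, Ca2+ and protease inhibitors.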

T1 sequence (Q01718 whole entry): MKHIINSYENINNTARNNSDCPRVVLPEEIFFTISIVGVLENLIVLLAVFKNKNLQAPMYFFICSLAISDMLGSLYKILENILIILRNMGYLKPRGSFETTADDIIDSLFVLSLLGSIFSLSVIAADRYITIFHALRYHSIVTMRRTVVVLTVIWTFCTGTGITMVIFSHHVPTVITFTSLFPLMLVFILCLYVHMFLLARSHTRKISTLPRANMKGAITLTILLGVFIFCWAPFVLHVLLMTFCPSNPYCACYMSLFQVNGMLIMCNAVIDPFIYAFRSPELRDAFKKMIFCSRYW
T1 sequence (Q8TCY5 whole entry partner): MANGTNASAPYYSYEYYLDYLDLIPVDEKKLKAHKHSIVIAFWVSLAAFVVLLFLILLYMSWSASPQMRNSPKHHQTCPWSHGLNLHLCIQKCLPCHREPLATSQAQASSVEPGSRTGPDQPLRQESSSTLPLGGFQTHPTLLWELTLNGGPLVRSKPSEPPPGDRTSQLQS

`CCOc1ccccc1-c1ccc(C2(NC(=O)[C@@H]3CCN(C)C3)CCN(c3ccc(Cl)cc3C#N)CC2)cn1` [Compound 2-29, (3R)—N-[1-(4-chloro-2-cyanophenyl)-4-[6-(2-ethoxyphenyl)pyridin-3-yl]piperidin-4-yl]-1-methylpyrrolidine-3-carboxamide] and `CCOc1ncccc1-c1ccc(C2(NC(=O)N[C@H]3CCN(C)C3)CCN(c3ccc(C(F)(F)F)cc3C#N)CC2)cn1` [Compound 2-20, 1-{1-[2-cyano-4-(trifluoromethyl)phenyl]-4-{2′-ethoxy-[2,3′-bipyridin]-5-yl}piperidin-4-yl}-3-[(3S)-1-methylpyrrolidin-3-yl]urea] cannot be ordered by Ki: less than 10 nM for the first, less than 10 nM for the second.

First: CN1C[C@@H](O)[C@H](NC(=O)C2(c3ccc(-c4cccn4C)nc3)CCN(c3ccc(C(F)(F)F)cc3C#N)CC2)C1 [Compound 1-269, 1-[2-cyano-4-(trifluoromethyl)phenyl]-N-[(3R,4R)-4-hydroxy-1-methylpyrrolidin-3-yl]-4-[6-(1-methyl-1H-pyrrol-2-yl)pyridin-3-yl]piperidine-4-carboxamide]
Second: Cn1cccc1-c1ccc(C2(C(=O)N[C@@H]3C[C@H]3N)CCN(c3ccc(C(F)(F)F)cc3C#N)CC2)cn1 (racemic) [Compound 1-259, rac-N-[(1R,2R)-2-aminocyclopropyl]-1-[2-cyano-4-(trifluoromethyl)phenyl]-4-[6-(1-methyl-1H-pyrrol-2-yl)pyridin-3-yl]piperidine-4-carboxamide]
The Ki of the first is lower: less than 10 nM for the first, 10 to 100 nM for the second.

`CCOc1ncccc1-c1ncc(C2(C(=O)N[C@H]3CCN(C)C3)CCN(c3ccc(C(F)(F)F)nc3C#N)CC2)cc1F` [Compound 1-110, 1-[2-cyano-6-(trifluoromethyl)pyridin-3-yl]-4-{2′-ethoxy-3-fluoro-[2,3′-bipyridin]-5-yl}-N-[(3S)-1-methylpyrrolidin-3-yl]piperidine-4-carboxamide] and `CCOc1ncccc1-c1ncc(C2(C(=O)N[C@H]3CCN(C)C3)CCN(c3ccc(C(F)(F)F)cc3F)CC2)cc1F` [Compound 1-201, (S)-4-(2′-ethoxy-3-fluoro-[2,3′-bipyridin]-5-yl)-1-(2-fluoro-4-(trifluoromethyl)phenyl)-N-(1-methylpyrrolidin-3-yl)piperidine-4-carboxamide] cannot be ordered by Ki: less than 10 nM for the first, less than 10 nM for the second.

`CNCCNC(=O)C1(c2ccc(-c3cccn3C)nc2)CCN(c2ccc(C(F)(F)F)cc2Cl)CC1` [Compound 1-283, 1-[2-chloro-4-(trifluoromethyl)phenyl]-4-[6-(1-methyl-1H-pyrrol-2-yl)pyridin-3-yl]-N-[2-(methylamino)ethyl]piperidine-4-carboxamide] and `Cn1cccc1-c1ccc(C2(C(=O)NCCN3CCC3)CCN(c3ccc(C(F)(F)F)cc3C#N)CC2)cn1` [Compound 1-248, N-[2-(azetidin-1-yl)ethyl]-1-[2-cyano-4-(trifluoromethyl)phenyl]-4-[6-(1-methyl-1H-pyrrol-2-yl)pyridin-3-yl]piperidine-4-carboxamide] cannot be ordered by Ki: less than 10 nM for the first, less than 10 nM for the second.

`CCOc1ncccc1-c1ccc(C2(C(=O)N[C@H]3CCN(C)C3)CCN(c3ccc(C(C)(F)F)cc3C#N)CC2)cn1` [Compound 1-59, 1-[2-cyano-4-(1,1-difluoroethyl)phenyl]-4-{2′-ethoxy-[2,3′-bipyridin]-5-yl}-N-[(3S)-1-methylpyrrolidin-3-yl]piperidine-4-carboxamide] and `CCOc1ncccc1-c1ccc(C2(C(=O)NC3CN(C)C3)CCN(c3ccc(C(F)(F)F)cc3C#N)CC2)cn1` [Compound 1-19, 1-[2-cyano-4-(trifluoromethyl)phenyl]-4-{2′-ethoxy-[2,3′-bipyridin]-5-yl}-N-(1-methylazetidin-3-yl)piperidine-4-carboxamide] cannot be ordered by Ki: less than 10 nM for the first, less than 10 nM for the second.

First: CCOc1ncccc1-c1ccc(C2(NC(=O)CCN)CCN(c3ccc(C(F)(F)F)cc3C#N)CC2)cc1 [Compound 2-3, 3-amino-N-{1-[2-cyano-4-(trifluoromethyl)phenyl]-4-[4-(2-ethoxypyridin-3-yl)phenyl]piperidin-4-yl}propanamide]
Second: CCOc1ncccc1-c1ccc(C2(C(=O)NCC3CN(C)C3)CCN(c3ccc(C(F)(F)F)cc3C#N)CC2)cn1 [Compound 1-18, 1-[2-cyano-4-(trifluoromethyl)phenyl]-4-{2′-ethoxy-[2,3′-bipyridin]-5-yl}-N-[(1-methylazetidin-3-yl)methyl]piperidine-4-carboxamide]
The Ki of the first is higher: 10 to 100 nM for the first, less than 10 nM for the second.

`CCOc1ncccc1-c1ncc(C2(C(=O)N[C@@H](C)CNC)CCN(c3ccc(C(F)(F)F)cc3C#N)CC2)cc1F` [Compound 1-320, 1-[2-cyano-4-(trifluoromethyl)phenyl]-4-{2′-ethoxy-3-fluoro-[2,3′-bipyridin]-5-yl}-N-[(2S)-1-(methylamino)propan-2-yl]piperidine-4-carboxamide] and `CNCCNC(=O)C1(c2cnc(-c3cccnc3OC)c(F)c2)CCN(c2ccc(C(F)(F)F)cc2F)CC1` [Compound 1-301, 4-{3-fluoro-2′-methoxy-[2,3′-bipyridin]-5-yl}-1-[2-fluoro-4-(trifluoromethyl)phenyl]-N-[2-(methylamino)ethyl]piperidine-4-carboxamide] cannot be ordered by Ki: less than 10 nM for the first, less than 10 nM for the second.

First: CCOC(=O)N1CC[C@H](NC(=O)C2(c3ccc(-c4cccn4C)nc3)CCN(c3ccc(C(F)(F)F)cc3C#N)CC2)C1 [Compound 1-184, ethyl (3S)-3-{1-[2-cyano-4-(trifluoromethyl)phenyl]-4-[6-(1-methyl-1H-pyrrol-2-yl)pyridin-3-yl]piperidine-4-amido}pyrrolidine-1-carboxylate]
Second: CN1CC[C@@H](NC(=O)C2(c3ccc(-c4cccn4C)nc3)CCN(c3ccc(C(F)(F)F)cc3C#N)CC2)C1 [Compound 1-88, 1-[2-cyano-4-(trifluoromethyl)phenyl]-4-[6-(1-methyl-1H-pyrrol-2-yl)pyridin-3-yl]-N-[(3R)-1-methylpyrrolidin-3-yl]piperidine-4-carboxamide]
The Ki of the first is higher: 100 to 1000 nM for the first, less than 10 nM for the second.

First: COc1ccccc1-c1ccc(C2(C(=O)NC[C@@H]3CCN3C)CCN(c3ccc(C(F)(F)F)cc3C#N)CC2)cn1 [Compound 1-217, 1-[2-cyano-4-(trifluoromethyl)phenyl]-4-[6-(2-methoxyphenyl)pyridine-3-yl]-N-{[(2S)-1-methylazetidin-2-yl]methyl}piperidine-4-carboxamide]
Second: CN1CC[C@@H](NC(=O)C2(c3ccc(-c4ccccc4CC#N)nc3)CCN(c3ccc(C(F)(F)F)cc3C#N)CC2)C1 [Compound 1-137, 1-[2-cyano-4-(trifluoromethyl)phenyl]-4-{6-[2-(cyanomethyl)phenyl]pyridin-3-yl}-N-[(3R)-1-methylpyrrolidin-3-yl]piperidine-4-carboxamide]
The Ki of the first is lower: less than 10 nM for the first, 10 to 100 nM for the second.

First: CCOc1ncccc1-c1ccc(C2(C(=O)N[C@@H]3CCN(C)C3)CCN(c3c(Cl)cc(C(F)(F)F)cc3C#N)CC2)cc1 [Compound 1-29, 1-[2-chloro-6-cyano-4-(trifluoromethyl)phenyl]-4-[4-(2-ethoxypyridin-3-yl)phenyl]-N-[(3R)-1-methylpyrrolidin-3-yl]piperidine-4-carboxamide]
Second: CCOc1ncccc1-c1ncc(C2(C(=O)N[C@H]3CCN(C)C3)CCN(c3ccc(C(F)(F)F)cc3C#N)CC2)cn1 [Compound 1-106, 1-[2-cyano-4-(trifluoromethyl)phenyl]-4-[2-(2-ethoxypyridin-3-yl)pyrimidin-5-yl]-N-[(3S)-1-methylpyrrolidin-3-yl]piperidine-4-carboxamide]
The Ki of the first is higher: 10 to 100 nM for the first, less than 10 nM for the second.

`CN1CC[C@@H](NC(=O)C2(c3ccc(-c4cc(F)ccc4F)nc3)CCN(c3ccc(C(F)(F)F)cc3C#N)CC2)C1` [Compound 1-68, 1-[2-cyano-4-(trifluoromethyl)phenyl]-4-[6-(2,5-difluorophenyl)pyridin-3-yl]-N-[(3R)-1-methylpyrrolidin-3-yl]piperidine-4-carboxamide] and `CCn1cccc1-c1ccc(C2(C(=O)N[C@H]3CCN(C)C3)CCN(c3ccc(C(F)(F)F)cc3C#N)CC2)cn1` [Compound 1-208, 1-[2-cyano-4-(trifluoromethyl)phenyl]-4-[6-(1-ethyl-1H-pyrrol-2-yl)pyridine-3-yl]-N-[(3S)-1-methylpyrrolidin-3-yl]piperidine-4-carboxamide] cannot be ordered by Ki: less than 10 nM for the first, less than 10 nM for the second.

`COc1ccccc1-c1ccc(C2(NC(=O)OCCN(C)C)CCN(c3ccc(C(F)(F)F)cc3C#N)CC2)cn1` [Compound 2-57, 2-(dimethylamino)ethyl N-{1-[2-cyano-4-(trifluoromethyl)phenyl]-4-[6-(2-methoxyphenyl)pyridin-3-yl]piperidin-4-yl}carbamate] and `C[C@H](CN(C)C)NC(=O)C1(c2ccc(-c3cccn3C)nc2)CCN(c2ccc(C(F)(F)F)cc2C#N)CC1` [Compound 1-260, 1-[2-cyano-4-(trifluoromethyl)phenyl]-N-[(2R)-1-(dimethylamino)propan-2-yl]-4-[6-(1-methyl-1H-pyrrol-2-yl)pyridin-3-yl]piperidine-4-carboxamide] cannot be ordered by Ki: less than 10 nM for the first, less than 10 nM for the second.

`CCOc1ccccc1-c1ccc(C2(C(=O)NCCNC)CCN(c3ccc(C(F)(F)F)cc3F)CC2)cn1` [Compound 1-227, 4-[6-(2-ethoxyphenyl)pyridin-3-yl]-1-[2-fluoro-4-(trifluoromethyl)phenyl]-N-[2-(methylamino)ethyl]piperidine-4-carboxamide] and `CCOc1ncccc1-c1ccc(C2(C(=O)N[C@@H](C)CN(C)C)CCN(c3ccc(Cl)cc3Cl)CC2)cn1` [Compound 1-318, 1-(2,4-dichlorophenyl)-N-[(2S)-1-(dimethylamino)propan-2-yl]-4-{2′-ethoxy-[2,3′-bipyridin]-5-yl}piperidine-4-carboxamide] cannot be ordered by Ki: less than 10 nM for the first, less than 10 nM for the second.

`CN(C)[C@@H]1COC[C@H]1NC(=O)C1(c2ccc(-c3cccn3C)nc2)CCN(c2ccc(C(F)(F)F)cc2C#N)CC1` [Compound 1-264, 1-[2-cyano-4-(trifluoromethyl)phenyl]-N-[(3S,4S)-4-(dimethylamino)oxolan-3-yl]-4-[6-(1-methyl-1H-pyrrol-2-yl)pyridin-3-yl]piperidine-4-carboxamide] was tested, and the Ki was 10 to 100 nM.

Source: patent US12492181B2, “Gem-disubstituted piperidine melanocortin subtype-2 receptor (MC2R) antagonists and uses thereof” (Crinetics Pharmaceuticals, Inc., priority 2019, dated 2025)
